Experimental data taken from article PMC6946680, “Modulation of brain cation-Cl^− cotransport via the SPAK kinase inhibitor ZT-1a” (Nature Communications, 2020).
Values joined by “and” are separate entries in the source; they are usually repeats but may differ in a detail not shown here. Identical values can stand only once.

Assays:
NKCC1 pThr203/207/212 [1] = test: Immunoblot of NKCC1 p-Thr203/Thr207/Thr212 in HEK-293 cells; type: cell-based, human; details: single replicates
NCC pThr46/50/55/60 = test: Pharmacodynamic study, NCC phosphorylation in kidney of naive mice; type: in vivo, mouse; details: Fig S8b (kidney); 50 mg/kg
Procedure: (§1) To define ZT-1a efficacy in naive mice in vivo, we examined phosphorylation of SPAK, NKCC1, and NCC in kidney, and phosphorylation of SPAK, NKCC1, and KCC3 in brain, after intraperitoneal (i.p.) administration of either ZT-1a (10, 30, 50, and 100 mg/kg) or Closantel (50 mg/kg as a reference). […]
(§2) 5. Pharmacodynamic (PD) study
(§3) Male C57BL/6j wild-type mice (6 weeks old, Charles River Laboratories Edinburgh UK) were treated with ZT-1a (in DMSO, Sigma) by subcutaneous injection at doses of 0, 3, 10, 30, 50 and 100 mg/kg. 50 mg/kg Closantel was administered as a comparative control. Vehicle control mice were treated with an equal volume of DMSO solution. One hour after administration, mice were sacrificed by cervical dislocation, and kidney and brain tissues were rapidly dissected and snap-frozen in liquid nitrogen. Age- […]
(§4) free conditions at the University of Dundee (UK) as described in our recent study1. Animal experiments and breeding were approved by the University of Dundee ethical committee and performed under a […]
(§5) Policy on the Care, Welfare and Treatment of Animals, and regulations set by the University of Dundee and the U.K. Home Office. […]
(§6) Brain and kidney tissues were collected at 60 min post injection, and proteins subjected to immunoblot were probed with antibodies specific for phosphorylated forms of SPAK,

SPAK pSer373 = test: Immunoblot of SPAK/OSR1 p-Ser373/Ser325 in HEK-293 cells; type: cell-based, human; details: single replicates
[2] = biological target: human SPAK 452-547(C-term) with WNK peptide (RFQV) (Homo sapiens, UniProt Q9UEW8); test: Fluorescence polarization of SPAK–WNK peptide interaction; type: binding; details: SPAK FL, Fig S5b
SPAK phosphorylation = test: Pharmacodynamic study, SPAK phosphorylation in brain of naive mice; type: in vivo, mouse; details: Fig S8a (brain); 50 mg/kg
Procedure: as §1, §2, §3, §4, §5, §6

KCC3 pThr1048 [3] = test: Pharmacodynamic study, KCC3 phosphorylation in brain of naive mice; type: in vivo, mouse
Procedure: as §1, §2, §3, §4, §5, §6

[4] = test system: mouse model of ischemic stroke (tMCAO); test: Infarct volume and hemispheric swelling (TTC) 24 h after tMCAO; type: in vivo; details: for Infarct volume (mm3): Fig 9b; for Infarct volume (mm3) / Hemisphere swelling (%): individual mice; for Hemisphere swelling (%): Fig 9c
NKCC1 pThr203/207/212 [5] = test: Pharmacodynamic study, NKCC1 phosphorylation in kidney of naive mice; type: in vivo, mouse; details: Fig S8b (kidney); 50 mg/kg
Procedure: as §1, §2, §3, §4, §5, §6

[6] = test system: regional cerebral blood flow; test: Regional cerebral blood flow by laser speckle contrast imaging after tMCAO; type: in vivo, mouse; details: single mice
Procedure: Regional cerebral blood flow was measured using a two-dimensional laser speckle contrast analysis system (PeriCam PSI High Resolution with PIMSoft, Perimed)[65]. Isoflurane-anesthetized mice were head-fixed using stereotaxic equipment during imaging. The skin was retracted to expose the intact skull. Images were taken at 19 frames/second with averaging. Average signal intensity was taken from fixed-size (0.5-mm^2) regions of interest drawn over the parietal bone plate on the ipsi (IL)- and contralateral (CL) sides. Percent perfusion values were taken in comparison with the mean values of the pre-ischemic ipsilateral side. Five consecutive images at each time period per animal were averaged for analysis. […]
cerebral blood flow (rCBF) in ischemic mice. a and d Representative two-dimensional laser speckle contrast images of rCBF. Vehicle (DMSO), ZT-1a (A, 2.5 mg/kg), or Closantel (D, 1.25 mg/kg, i.p.) was administered i.p. at 3 hr and again at 8 hr post-reperfusion after MCAO. Pseudocolor scale bar indicates relative signal intensity. b and e No changes of rCBF were detected in the non-ischemic […]
contralateral (CL) hemispheres of vehicle-control or ZT-1a-treated (b) or Closantel-treated mice (e).
Data are mean ± SD, n = 3. c and f Similar reductions and recoveries of rCBF in the ischemic ipsilateral hemispheres (IL) were detected in the ZT-1a-treated (c) or Closantel-treated ischemic mice (f), and neither differed from vehicle-injected mice. Data are mean ± SEM, n = 3.

[7] = Immunoblot of KCC site 1 phosphorylation (KCC3 Thr991) in HEK-293 cells transfected with FLAG-KCC3; type: cell-based, human
KCC3 pThr1048 [8] = test: Immunoblot of KCC site 2 phosphorylation (KCC3 Thr1048) in HEK-293 cells transfected with FLAG-KCC3; type: cell-based, human; details: single replicates

SMILES: Cc1cc(C(C#N)c2ccc(Cl)cc2)c(Cl)cc1NC(=O)c1cc(I)cc(I)c1O (stereo not shown) [Closantel, reference compound]
- pNKCC1/NKCC1 band intensity ratio (NKCC1 pThr203/207/212 [1]; Hypotonic low Cl, 1 uM): 1.007 and 1.145 and 1.103 and 1.12
- pNKCC1/NKCC1 band intensity ratio (NKCC1 pThr203/207/212 [1]; Hypotonic low Cl, 3 uM): 0.767 and 0.631 and 0.6563 and 0.721
- pNKCC1/NKCC1 band intensity ratio (NKCC1 pThr203/207/212 [1]; Hypotonic low Cl, 10 uM): 0.313 and 0.28 and 0.243 and 0.21
- pNKCC1/NKCC1 band intensity ratio (NKCC1 pThr203/207/212 [1]; Isotonic control, 1 uM): 0.204 and 0.171 and 0.186 and 0.195
- pNKCC1/NKCC1 band intensity ratio (NKCC1 pThr203/207/212 [1]; Isotonic control, 3 uM): 0.054 and 0.067 and 0.053 and 0.062
- pNKCC1/NKCC1 band intensity ratio (NKCC1 pThr203/207/212 [1]; Isotonic control, 10 uM): 0.03 and 0.047 and 0.044 and 0.038
- pTh46.50.55 / NCC (NCC pThr46/50/55/60): 0.81 and 1.06 and 0.69 and 0.76
- pSPAK/SPAK band intensity ratio (SPAK pSer373; Hypotonic low Cl, 1 uM): 0.156 and 0.123 and 0.1673 and 0.133
- pSPAK/SPAK band intensity ratio (SPAK pSer373; Hypotonic low Cl, 3 uM): 0.102 and 0.11 and 0.1063 and 0.108
- pSPAK/SPAK band intensity ratio (SPAK pSer373; Hypotonic low Cl, 10 uM): 0.032 and 0.058 and 0.043 and 0.041
- pSPAK/SPAK band intensity ratio (SPAK pSer373; Isotonic control, 1 uM): 0.118 and 0.131 and 0.126 and 0.122
- pSPAK/SPAK band intensity ratio (SPAK pSer373; Isotonic control, 3 uM): 0.056 and 0.061 and 0.054 and 0.063
- pSPAK/SPAK band intensity ratio (SPAK pSer373; Isotonic control, 10 uM): 0.039 and 0.027 and 0.033 and 0.031
- Inhibitor vs SPAK FL (fluorescence polarization signal) ([2]; Inhibitor 1e-5 μM): 127.9 and 118 and 130
- Inhibitor vs SPAK FL (fluorescence polarization signal) ([2]; Inhibitor 0.0001 μM): 125.3 and 112 and 127
- Inhibitor vs SPAK FL (fluorescence polarization signal) ([2]; Inhibitor 0.001 μM): 121.9 and 115.3 and 123
- Inhibitor vs SPAK FL (fluorescence polarization signal) ([2]; Inhibitor 0.003 μM): 123.1 and 116.4 and 120.4
- Inhibitor vs SPAK FL (fluorescence polarization signal) ([2]; Inhibitor 0.01 μM): 124.7 and 111.9 and 117.8
- Inhibitor vs SPAK FL (fluorescence polarization signal) ([2]; Inhibitor 0.03 μM): 123.5 and 114.7 and 122.6
- Inhibitor vs SPAK FL (fluorescence polarization signal) ([2]; Inhibitor 0.1 μM): 126.5 and 109.5 and 116.8
- Inhibitor vs SPAK FL (fluorescence polarization signal) ([2]; Inhibitor 0.3 μM): 114.7 and 105.4 and 109.5
- Inhibitor vs SPAK FL (fluorescence polarization signal) ([2]; Inhibitor 1 μM): 106.2 and 99.8 and 105.3
- Inhibitor vs SPAK FL (fluorescence polarization signal) ([2]; Inhibitor 3 μM): 104.5 and 98.4 and 100.5
- Inhibitor vs SPAK FL (fluorescence polarization signal) ([2]; Inhibitor 10 μM): 103.1 and 97.1 and 101.4
- Inhibitor vs SPAK FL (fluorescence polarization signal) ([2]; Inhibitor 100 μM): 104.1 and 98.1 and 100.6
- pSer373 / SPAK (SPAK phosphorylation): 0.54 and 0.68 and 0.62 and 0.52
- KCC3 phosphorylation (pThr1048) in naive brains (KCC3 pThr1048 [3]; 60 min after administration): neither drug had reduced
- pTh1048 / KCC3 (KCC3 pThr1048 [3]; Fig S8a (brain), 50 mg/kg): 0.84 and 0.87 and 0.95 and 0.91
- infarct volume and hemispheric swelling ([4]; Closantel 0.1 mg/kg): ineffective
- infarct volume and hemispheric swelling ([4]; Closantel 1.0 or 2.5 mg/kg at 3 and 8 h post reperfusion): reduced infarct volume and hemispheric swelling in a dose-dependent manner
- Infarct volume (mm3) ([4]; group Closantel 0.1): 52.64 mm3 and 37.67 mm3 and 66.15 mm3 and 91.58 mm3 and 31.83 mm3 and 54.68 mm3 and 37.74 mm3 and 60.16 mm3
- Infarct volume (mm3) ([4]; group Closantel 1.0): 45.07 mm3 and 60.3 mm3 and 40.86 mm3 and 27.89 mm3 and 44.96 mm3 and 50.26 mm3 and 35.08 mm3 and 36.9 mm3
- Infarct volume (mm3) ([4]; group Closantel 2.5): 19.91 mm3 and 50.06 mm3 and 19.99 mm3 and 41.45 mm3 and 32.49 mm3
- Hemisphere swelling (%) ([4]; group Closantel 0.1): 17.46% and 13.77% and 21.57% and 18.71% and 11.16% and 11.73% and 9.03% and 12%
- Hemisphere swelling (%) ([4]; group Closantel 1.0): 14.03% and 8.76% and 11.37% and 10.48% and 8.67% and 13.59% and 10.61% and 15.28%
- Hemisphere swelling (%) ([4]; group Closantel 2.5): 3.84% and 16.57% and 8.91% and 6.76% and 4.41%
- pTh203.207.212 / NKCC1 (NKCC1 pThr203/207/212 [5]): 0.43 and 0.52 and 0.41 and 0.37
- % CBF ([6]; Fig S10b/S10e, Pre): 100%
- % CBF ([6]; Fig S10b/S10e, Reperfusion 10 min): 84% and 95% and 110%
- % CBF ([6]; Fig S10b/S10e, Reperfusion 20 min): 94% and 89% and 92%
- % CBF ([6]; Fig S10b/S10e, Reperfusion 3 h): 108% and 97% and 120%
- % CBF ([6]; Fig S10b/S10e, Reperfusion 4 h): 105% and 104% and 110%
- % CBF ([6]; Fig S10b/S10e, Reperfusion 24 h): 119% and 83% and 102%
- % CBF ([6]; Fig S10b/S10e, mcao 10 min): 113% and 80% and 120%
- % CBF ([6]; Fig S10b/S10e, mcao 20min): 111% and 75% and 88%
- % CBF ([6]; Fig S10b/S10e, mcao 50 min): 111% and 76% and 90%
- % CBF ([6]; Fig S10c/S10f, Pre): 100%
- % CBF ([6]; Fig S10c/S10f, Reperfusion 10 min): 68% and 56%
- % CBF ([6]; Fig S10c/S10f, Reperfusion 20 min): 65% and 75% and 58%
- % CBF ([6]; Fig S10c/S10f, Reperfusion 3 h): 88% and 84% and 92%
- % CBF ([6]; Fig S10c/S10f, Reperfusion 4 h): 101% and 92% and 90%
- % CBF ([6]; Fig S10c/S10f, Reperfusion 24 h): 120% and 101% and 104%
- % CBF ([6]; Fig S10c/S10f, mcao 10 min): 34% and 30% and 35%
- % CBF ([6]; Fig S10c/S10f, mcao 20min): 37% and 32% and 33%
- % CBF ([6]; Fig S10c/S10f, mcao 50 min): 34% and 33%
- T906/KCC2 band intensity ratio ([7]; Hypotonic low Cl, 1 uM, single replicates): 0.202 and 0.217 and 0.223 and 0.249
- T906/KCC2 band intensity ratio ([7]; Hypotonic low Cl, 3 uM, single replicates): 0.23 and 0.214 and 0.223 and 0.251
- T906/KCC2 band intensity ratio ([7]; Hypotonic low Cl, 10 uM, single replicates): 0.186 and 0.19 and 0.176 and 0.21
- T906/KCC2 band intensity ratio ([7]; Isotonic control, 1 uM, single replicates (Fig 2 source data)): 0.244 and 0.296 and 0.316 and 0.327
- T906/KCC2 band intensity ratio ([7]; Isotonic control, 3 uM, single replicates): 0.256 and 0.224 and 0.253 and 0.285
- T906/KCC2 band intensity ratio ([7]; Isotonic control, 10 uM, single replicates): 0.18 and 0.181 and 0.194 and 0.22
- T1007/KCC2 band intensity ratio (KCC3 pThr1048 [8]; Hypotonic low Cl, 1 uM): 0.34 and 0.36 and 0.343 and 0.37
- T1007/KCC2 band intensity ratio (KCC3 pThr1048 [8]; Hypotonic low Cl, 3 uM): 0.16 and 0.144 and 0.163 and 0.152
- T1007/KCC2 band intensity ratio (KCC3 pThr1048 [8]; Hypotonic low Cl, 10 uM): 0.113 and 0.046 and 0.08 and 0.1
- T1007/KCC2 band intensity ratio (KCC3 pThr1048 [8]; Isotonic control, 1 uM): 0.358 (2×) and 0.326 and 0.311
- T1007/KCC2 band intensity ratio (KCC3 pThr1048 [8]; Isotonic control, 3 uM): 0.141 and 0.106 and 0.123 and 0.134
- T1007/KCC2 band intensity ratio (KCC3 pThr1048 [8]; Isotonic control, 10 uM): 0.071 and 0.062 and 0.054 and 0.067
